The target of assay [1] is T1, AHR (Homo sapiens, UniProt P35869).
T1 construct: U87 glioblastoma cells (ATCC) endogenously expressing AHR; host or cells: U87 glioblastoma cells, stably transfected with DRE-firefly luciferase and renilla reporter constructs
T1 sequence (P35869 11-848): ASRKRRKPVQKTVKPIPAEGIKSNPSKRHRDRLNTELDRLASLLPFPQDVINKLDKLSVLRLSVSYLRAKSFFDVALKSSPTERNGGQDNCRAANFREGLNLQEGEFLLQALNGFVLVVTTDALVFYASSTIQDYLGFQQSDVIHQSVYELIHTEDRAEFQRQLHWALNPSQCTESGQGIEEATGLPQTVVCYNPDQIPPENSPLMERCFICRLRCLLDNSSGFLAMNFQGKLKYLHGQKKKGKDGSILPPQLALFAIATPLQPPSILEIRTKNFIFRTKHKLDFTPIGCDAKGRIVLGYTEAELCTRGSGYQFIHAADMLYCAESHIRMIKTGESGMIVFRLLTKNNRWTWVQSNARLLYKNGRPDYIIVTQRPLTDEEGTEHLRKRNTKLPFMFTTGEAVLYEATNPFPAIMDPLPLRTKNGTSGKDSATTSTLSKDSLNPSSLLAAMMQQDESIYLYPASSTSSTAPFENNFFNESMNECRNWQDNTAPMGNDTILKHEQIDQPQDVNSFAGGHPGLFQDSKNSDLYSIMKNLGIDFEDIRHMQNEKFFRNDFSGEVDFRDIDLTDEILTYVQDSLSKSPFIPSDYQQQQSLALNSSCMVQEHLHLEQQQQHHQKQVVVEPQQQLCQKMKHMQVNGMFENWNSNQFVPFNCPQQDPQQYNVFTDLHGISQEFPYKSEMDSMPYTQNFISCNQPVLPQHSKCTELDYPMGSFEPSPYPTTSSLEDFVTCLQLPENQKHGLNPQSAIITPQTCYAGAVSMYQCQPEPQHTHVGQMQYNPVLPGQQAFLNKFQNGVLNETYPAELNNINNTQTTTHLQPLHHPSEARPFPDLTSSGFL
Kind of assay: In vitro assay 3: AHR-regulated CYP1A1 expression in human cell line (U937, qPCR). It is filed as cell-based. Conditions: human monocytic U937 cells, CYP1A1 expression induced with 200 μM KA, 6 hours, quantitative PCR; read-out: Assay 3: Hum CYP1A1 Antagonism IC50. As to the method: In Vitro Assay 3: AHR-Regulated CYP1A1 Expression in Human Cell Line
To assess the AHR inhibitory activity of the substances described in this application, the ability thereof to antagonise ligand-induced AHR gene regulation in a dose-dependent manner was quantified. For this purpose, quantitative PCR analysis was used to determine expression of the AHR-regulated gene CYP1A1 in a human monocytic U937 cell line upon stimulation with 200 μM KA in the presence and absence of AHR inhibitor. […] CYP1A1 expression was induced with 200 μM KA (positive control) in the presence or absence of the substances for 6 hours. Human U937 cells were typically incubated with eight different concentrations of the substances (1 nM, 3 nM, 10 nM, 30 nM, 100 nM, 300 nM, 1 μM and 3 μM) and analyzed in duplicate on the same microtitre plate. […] Unstimulated cells were used as the negative control. Taqman probes for human CYP1A1 (Hs01054797_g1) and human HPRT (Hs02800695_m1) were used to analyze fold expression of CYP1A1 of HPRT. Quantitation was performed on a Taqman SDS7900HT.
(In general: Real-time PCR tracks product formation cycle by cycle.)

In assay [2] the target is T1, AHR. Description: In vitro assay 1: AHR-luc transactivation assay, antagonism in human cell line (U87 glioblastoma cells prestimulated with kynurenic acid). It is filed as cell-based. As to the method: Transactivation Assay in Human Cell Line (In Vitro Assays 1 and 2)
Transactivation assays were carried out in U87 glioblastoma cells (ATCC) endogenously expressing AHR. In addition the cells were stably transfected with an AHR inducible firefly luciferase reporter gene construct that carried AHR-binding sites (DRE) in its promoter and a renilla reporter gene construct with constitutively active promoter. Kynurenic acid is an endogenous AHR activating ligand and was used to prestimulate test cells prior to testing the antagonistic properties of compounds.
In Vitro Assay 1: Antagonism in Human Cell Line
Cells in medium (tryptophan free RPMI, 1% FCS, 2 mM Glutamine) supplemented with 150 μM kynurenic acid were grown for 20 hours in absence (negative control) or presence of increasing concentrations of test compounds (typical dilutions: 72 pmol/L, 0.25 nmol/L, 0.89 nmol/L; 3.1 nmol/L, 11 nmol/L, 38 nmol/L, 130 nmol/L, 470 nmol/L, 1.6 μmol/L, 5.7 μmol/L and 20 μmol/L in duplicates). As positive inhibition control cells supplemented with 150 μM kynurenic acid were incubated in presence of 5 μM Staurosporin. Normalization was done by positive and negative controls.
Firefly luciferase and Renilla activity was determined by the DualGlo Luciferase Assay System (Promega, #2920). Renilla activity was used to assess toxic effects of compounds.

One may read the IC50 as the concentration that gives 50% inhibition. In the case of `C[C@@H](CO)NC(=O)c1cc(-c2ccc(C(F)(F)F)nc2)nn(-c2cc(F)cc(F)c2)c1=O` [Example 1, 2-(3,5-Difluorophenyl)-N-[(25)-1-hydroxypropan-2-yl]-3-oxo-6-[6-(trifluoromethyl)pyridin-3-yl]-2,3-dihydropyridazine-4-carboxamide], the half-inhibitory concentration (IC50) was determined as 5.29 nM at AHR [1] and 7.14 nM on AHR [2].

`C[C@@H](CO)NC(=O)c1cc(-c2ccc(C(F)(F)F)nc2)nn(-c2cc(F)cc(Cl)c2)c1=O` [Example 2, 2-(3-Chloro-5-fluorophenyl)-N-[(2S)-1-hydroxypropan-2-yl]-3-oxo-6-[6-(trifluoromethyl)pyridin-3-yl]-2,3-dihydropyridazine-4-carboxamide]: the IC50 on AHR [1] came out at 36.8 nM; at AHR [2] it was 23.5 nM.

For the compound `C[C@@H](CO)NC(=O)c1cc(-c2ccc(C(F)(F)F)nc2)nn(-c2cccc(Cl)c2)c1=O` [Example 4, 2-(3-Chlorophenyl)-N-[(2S)-1-hydroxypropan-2-yl]-3-oxo-6-[6-(trifluoromethyl)pyridin-3-yl]-2,3-dihydropyridazine-4-carboxamide], the IC50 on AHR [1] was 222 nM; against AHR [2], 128 nM.

As for `C[C@@H](CO)NC(=O)c1cc(-c2ccc(C(F)(F)F)nc2)nn(-c2ccccc2)c1=O` [Example 5, N-[(2S)-1-Hydroxypropan-2-yl]-3-oxo-2-phenyl-6-[6-(trifluoromethyl)pyridin-3-yl]-2,3-dihydropyridazine-4-carboxamide], the IC50 at AHR [1] turned out to be 281 nM; on AHR [2], 163 nM.

As for `O=C(N[C@H]1CCC[C@@H]1O)c1cc(-c2ccc(C(F)(F)F)nc2)nn(-c2cccc(F)c2)c1=O` [Example 6, 2-(3-Fluorophenyl)-N-[(1S,2S)-2-hydroxycyclopentyl]-3-oxo-6-[6-(trifluoromethyl)pyridin-3-yl]-2,3-dihydropyridazine-4-carboxamide], the IC50 is 8.32 nM at AHR [1] and 13.4 nM against AHR [2].

Turning to `C[C@@H](NC(=O)c1cc(-c2ccc(C(F)(F)F)nc2)nn(-c2cccc(F)c2)c1=O)C(C)(C)O` [Example 7, 2-(3-Fluorophenyl)-N-[(2R)-3-hydroxy-3-methylbutan-2-yl]-3-oxo-6-[6-(trifluoromethyl)pyridin-3-yl]-2,3-dihydropyridazine-4-carboxamide], the IC50 at AHR [1] stood at 48.1 nM; against AHR [2], 25.8 nM.

Regarding `O=C(N[C@H]1CCC[C@H]1O)c1cc(-c2ccc(C(F)(F)F)nc2)nn(-c2cccc(F)c2)c1=O` [Example 8, 2-(3-Fluorophenyl)-N-[(1S,2R)-2-hydroxycyclopentyl]-3-oxo-6-[6-(trifluoromethyl)pyridin-3-yl]-2,3-dihydropyridazine-4-carboxamide], the IC50 was found to be 10.3 nM at AHR [1] and 6.28 nM against AHR [2].

Regarding `C[C@H](NC(=O)c1cc(-c2ccc(C(F)(F)F)nc2)nn(-c2cccc(F)c2)c1=O)C(C)(C)O` [Example 9, 2-(3-Fluorophenyl)-N-[(2S)-3-hydroxy-3-methylbutan-2-yl]-3-oxo-6-[6-(trifluoromethyl)pyridin-3-yl]-2,3-dihydropyridazine-4-carboxamide], the IC50 at AHR [1] was 25.3 nM; against AHR [2], 16.2 nM.

Turning to `CC(C)(O)CNC(=O)c1cc(-c2ccc(C(F)(F)F)nc2)nn(-c2cccc(F)c2)c1=O` [Example 10, 2-(3-Fluorophenyl)-N-(2-hydroxy-2-methylpropyl)-3-oxo-6-[6-(trifluoromethyl)pyridin-3-yl]-2,3-dihydropyridazine-4-carboxamide], the IC50 at AHR [1] was found to be 110 nM; against AHR [2], 73.2 nM.

`C[C@@H](CO)NC(=O)c1cc(-c2cnc(C(F)(F)F)nc2)nn(-c2cccc(F)c2)c1=O` [Example 11, 2-(3-Fluorophenyl)-N-[(2S)-1-hydroxypropan-2-yl]-3-oxo-6-[2-(trifluoromethyl)pyrimidin-5-yl]-2,3-dihydropyridazine-4-carboxamide]: the IC50 at AHR [1] amounted to 326 nM; against AHR [2], 495 nM.

For `C[C@@H](CO)NC(=O)c1cc(-c2ccc(C(F)F)nc2)nn(-c2cccc(F)c2)c1=O` [Example 13, 6-[6-(Difluoromethyl)pyridin-3-yl]-2-(3-fluorophenyl)-N-[(2S)-1-hydroxypropan-2-yl]-3-oxo-2,3-dihydropyridazine-4-carboxamide], the half-maximal inhibitory concentration (IC50) was found to be 198 nM at AHR [1] and 157 nM against AHR [2].

Take `C[C@@H](CO)NC(=O)c1cc(-c2ccc(C(F)(F)F)nc2)nn(-c2cccc(F)c2)c1=O` [Example 18, 2-(3-Fluorophenyl)-N-[(2S)-1-hydroxypropan-2-yl]-3-oxo-6-[6-(trifluoromethyl)pyridin-3-yl]-2,3-dihydropyridazine-4-carboxamide]: the half-inhibitory concentration (IC50) worked out at 31.4 nM on AHR [1] and 33.8 nM on AHR [2].

On AHR [2], `O=C(N[C@H]1COCC[C@@H]1O)c1cc(-c2ccc(C(F)F)nc2)nn(-c2cccc(F)c2)c1=O` [Example 37, 1,5-Anhydro-2,4-dideoxy-2-[({6-[6-(difluoromethyl)pyridin-3-yl]-2-(3-fluorophenyl)-3-oxo-2,3-dihydropyridazin-4-yl}carbonyl)amino]-L-threo-pentitol] displayed an IC50 of 268 nM.

On AHR [2], `O=C(N[C@H]1COC[C@@H]1O)c1cc(-c2ccc(C(F)F)nc2)nn(-c2cccc(F)c2)c1=O` [Example 38, 6-[6-(Difluoromethyl)pyridin-3-yl]-2-(3-fluorophenyl)-N-[(3S,4R)-4-hydroxytetrahydrofuran-3-yl]-3-oxo-2,3-dihydropyridazine-4-carboxamide] showed an IC50 of 370 nM.

On AHR [2], `N#C[C@@H](CO)NC(=O)c1cc(-c2ccc(C(F)(F)F)nc2)nn(-c2cccc(F)c2)c1=O` [Example 39, N-[(1S)-1-Cyano-2-hydroxyethyl]-2-(3-fluorophenyl)-3-oxo-6-[6-(trifluoromethyl)pyridin-3-yl]-2,3-dihydropyridazine-4-carboxamide] registered an IC50 of 22.8 nM.

`O=C(N[C@H]1COCC[C@H]1O)c1cc(-c2ccc(C(F)(F)F)nc2)nn(-c2cccc(F)c2)c1=O` [Example 40, 1,5-anhydro-2,4-dideoxy-2-[({2-(3-fluorophenyl)-3-oxo-6-[6-(trifluoromethyl)pyridin-3-yl]-2,3-dihydropyridazin-4-yl}carbonyl)amino]-D-erythro-pentitol] had a half-inhibitory concentration (IC50) at AHR [2] of 32.8 nM.

In the case of `C[C@@H](CO)NC(=O)c1cc(-c2ccc(C(F)(F)F)cn2)nn(-c2cc(F)cc(F)c2)c1=O` [Example 41, 2-(3,5-Difluorophenyl)-N-[(2S)-1-hydroxypropan-2-yl]-3-oxo-6-[5-(trifluoromethyl)pyridin-2-yl]-2,3-dihydropyridazine-4-carboxamide], the IC50 against AHR [2] stood at 96.5 nM.

On to `C[C@@H](CO)NC(=O)c1cc(-c2ccc(C(F)(F)F)cn2)nn(-c2ccccc2)c1=O` [Example 42, N-[(2S)-1-Hydroxypropan-2-yl]-3-oxo-2-phenyl-6-[5-(trifluoromethyl)pyridin-2-yl]-2,3-dihydropyridazine-4-carboxamide], for which, on AHR [2], the IC50 worked out at 386 nM.

Turning to `C[C@@H](CO)NC(=O)c1cc(-c2ccc(C(F)(F)F)cn2)nn(-c2ccc(F)c(F)c2)c1=O` [Example 43, 2-(3,4-Difluorophenyl)-N-[(2S)-1-hydroxypropan-2-yl]-3-oxo-6-[5-(trifluoromethyl)pyridin-2-yl]-2,3-dihydropyridazine-4-carboxamide], inhibition against AHR [2] was half-maximal at 902 nM (IC50).

The values are drawn from patent US11591311B2, “3-oxo-6-heteroaryl-2-phenyl-2,3-dihydropyridazine-4-carboxamides” (priority 2017, dated 2023).
